Experiments:
VKOR [1] = molecular target: T1, VKOR (Homo sapiens, UniProt Q9BQB6); test: Correlation of VKOR gene SNPs with warfarin maintenance dose in patients; type: in vivo
T1 construct: from tissue; host or cells: patients on warfarin (in vivo); genomic DNA from whole blood
Text: The most prevalent isoform of the VKOR gene is about 4 kb long, has three exons and encodes an enzyme of 163 amino acids with a mass of 18.4 kDa.
Subjects were obtained from the UNC Coagulation Clinic in the Ambulatory Care Center. Informed consent was obtained by a trained genetic counselor. Subjects not fluent in English were excluded because of the lack of translators and the requirement for consent.
Genomic DNAs were extracted from the whole blood of subjects using QIAamp DNA Blood Mini Kit (QIAGEN cat#51104). The DNA concentration was adjusted to 10 ng/μL.
Approximately 10 ng of DNA was used for polymerase chain reaction (PCR) assays. The primers used to amplify the VKOR gene were: Exon 1-5′ […] (SEQ ID NO:29) and Exon 1-3′ […] (SEQ ID NO:30) for the 5′-UTR and Exon 1 region; Exon 2-5′ […] (SEQ ID NO:31) and Exon 2-3′ […] (SEQ ID NO:32) for the Exon 2 region; and Exon 3-5′ […] (SEQ ID NO:33) and Exon 3-3′ […] (SEQ ID NO:34) for the Exon3 and 3′-UTR region. Automated high throughput capillary electrophoresis DNA sequencing was used for detecting SNPs in the VKOR gene.
The assay reagents for SNP genotyping were from the Assay-by-Design™ service (Applied Biosystems, cat#4332072). The primers and probes (FAM™ and VIC™ dye-labeled) were designed using Primer Express software and were synthesized in an Applied Biosystems synthesizer. The primer pairs for each SNP are located at the upstream/downstream position of the SNP site and can generate less than 100 bp length of a DNA fragment in the PCR reaction. The FAM™ and VIC™ dye-labeled probes were designed to cover the SNP sites with a length of 15-16 nt.
The 2× TaqMan™ Universal PCR Master Mix, No AmpErase UNG (Applied Biosystems, cat#4324018) was used in the PCR reactions. Forty cycles of real-time PCR were performed in an Opticon II (MJ Research) machine. There was a 10 minute 95° C. preheat followed by 92° C. for 15 sec, 60° C. for 1 min. and then a plate reading. The results were read according to the signal value of FAM and VIC dye.
The difference of average dose between different genotypes was compared by analysis of variance (ANOVA) using SAS version 8.0 (SAS, Inc., Cary, N.C.). A two-sided p value less than 0.05 was considered significant.
Each marker was first analyzed independently.
The three VKOR SNPs are located within 2 kb distance of one another and are expected to be closely linked.

VKOR [2] = molecular target: T1, VKOR; test: Warfarin sensitivity of VKOR (mGC11276) expressed in Sf9 insect cells; type: biochemical
Experimental: FIG. 4. VKOR activity was detected when mGC_11276 was expressed in Sf9 insect cells. ˜1×10^6 cells were used in this assay. […] Blank Sf9 cells served as a negative control and A549 cells as a reference.
siRNA transfected A549 cells were trypsinized and washed twice with cold PBS. 1.5×10^7 cells were taken for each VKOR assay. 200 μL buffer D (250 mM Na2HPO4—NaH2PO4, 500 mM KCI, 20% glycerol and 0.75% CHAPS, pH 7.4) was added to the cell pellet, followed by sonication of the cell lysate. For assays of solubilized microsomes, microsomes were prepared from 2×10^9 cells as described (Lin et al. (2002) “The putative vitamin K-dependent gamma-glutamyl carboxylase internal propeptide appears to be the propeptide binding site” J Biol Chem 277:28584-91); 10 to 50 μL of solubilized microsomes were used for each assay. Vitamin K epoxide was added to the concentration indicated in the figure legends and DTT was added to 4 mM to initiate the reaction. […] 500 μL hexane was added and the mixture was vortexed vigorously for 1 minute to extract the vitamin K and KO. After 5 minutes centrifugation, the upper organic layer was transferred to a 5-mL brown vial and dried with N2. 150 μL HPLC buffer, acetonitrile:isopropanol:water (100:7:2), was added to dissolve the vitamin K and KO and the sample was analyzed by HPLC on an A C-18 column (Vydac, cat#218TP54). […]

T1 sequence (Q9BQB6 whole entry): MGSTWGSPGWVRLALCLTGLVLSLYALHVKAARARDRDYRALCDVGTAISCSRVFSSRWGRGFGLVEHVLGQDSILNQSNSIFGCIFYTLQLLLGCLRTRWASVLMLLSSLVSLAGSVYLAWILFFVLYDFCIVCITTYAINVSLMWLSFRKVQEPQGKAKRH

average warfarin dose (VKOR [1]; patients heterozygous for vk2581, n=17): 35.19±3.73 mg per week
average warfarin dose (VKOR [1]; patients heterozygous for vk3294, n=25): 41.68±4.92 mg per week
average warfarin dose (VKOR [1]; patients heterozygous for vk4769, n=19): 44.48±4.80 mg per week
average warfarin dose (VKOR [1]; patients homozygous for vk2581, n=15): 31.14±6.2 mg per week
average warfarin dose (VKOR [1]; patients homozygous for vk3294, n=22): 47.73±2.75 mg per week
average warfarin dose (VKOR [1]; patients homozygous for vk4769, n=12): 47.56±3.86 mg per week
warfarin dosage (VKOR [1]; patients with haplotype aaBBCC): 25.29±3.05
average warfarin dose (VKOR [1]; patients with vk2581 wild type allele, n=26): 50.19±3.20 mg per week
average warfarin dose (VKOR [1]; patients with vk4769 SNP wild type, n=27): 35.35±4.01 mg per week
average warfarin dose (VKOR [1]; patients with wild-type vk3294 allele, n=11): 25.29±3.05 mg per week
warfarin dosage (VKOR [1]; subjects with haplotype AAbbcc, n=7): 48.98±3.93
warfarin sensitivity of VKOR activity (VKOR [2]; Sf9 cells transfected with mGC11276 cDNA): warfarin sensitive
warfarin sensitivity of VKOR activity (VKOR [2]; microsomes from Sf9 cells expressing VKOR, 60 μM KO, 30° C., 15 minutes): warfarin-sensitive
SMILES: CC(=O)CC(c1ccccc1)c1c(O)c2ccccc2oc1=O (stereo not shown) [warfarin]

— patent US9441208B2, “Methods and compositions for producing vitamin K dependent proteins” (The University of North Carolina at Chapel Hill, priority 2003, dated 2016)
